Data: the METLIN SMRT retention time set (Domingo-Almenara et al. 2019)

Test: gradient 5% acetonitrile 3 min, to 50% in 2 min, to 85% in 15 min, held 3 min, 100 µL/min
Conditions: column: Zorbax Extend-C18 2.1 x 50 mm; eluents: water / acetonitrile, 0.1% formic acid
How it was run: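 Using water and acetonitrile that each contained 0.1% formic acid, mixtures of ~100 pure standards were separated at 100 μL/min on a Zorbax Extend-C18 column (2.1 × 50 mm, 1.8 μm). The HPLC fed a quadrupole time-of-flight mass spectrometer working in positive and negative ionization mode, with dead and dwell volumes of 40 μL and 900 μL. Data were acquired over 3 months. Retention time was read from computationally picked adduct peaks after manual inspection of each.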

SMILES	RP-LC retention time [s]
CCN(CC)CCNC(=O)C1c2ccccc2Oc2ccccc21	655
CCCc1noc(-c2nnn3c2COC(c2ccc(F)cc2)C3)n1 (stereo not drawn)	1040
Cc1nc(C(=O)N2CC(F)(F)C[C@H]2c2nc(C3CC3)no2)co1	768
CCCN1C(=O)c2cc(S(=O)(=O)Nc3cc(F)cc(F)c3)ccc2Oc2cccnc21	1080
O=C(c1cc(-c2ccncc2)n[nH]1)N1CCCC(C(=O)N2CCN(C(=O)c3ccco3)CC2)C1 (stereo not drawn)	556
CCc1cc(=O)n(CC(=O)Nc2cc(F)ccc2F)c(-c2ccccc2)n1	1180
Cc1nc2sc(C)c(C)n2c(=O)c1NC(=O)c1ccc(Br)o1	688
COc1ccc(-c2c(C)noc2NC(C)=O)cc1S(=O)(=O)Nc1ccc2c(c1)OCCO2	707
O=S(=O)(c1ccc2c(c1)CCC2)N1CCC(Cc2nc(-c3ccncc3)n[nH]2)C1 (stereo not drawn)	662
O=C(CCC1CCCC1)N1CCc2c([nH]c3ccccc23)C1c1ccc(Cl)cc1 (stereo not drawn)	1060
CN1C(=O)c2cc(C(=O)NCCc3ccc(Cl)cc3)nn2CC1(C)C(=O)NCc1ccccc1 (stereo not drawn)	823
CC1CCN(c2cc(-n3cnc(C(=O)N4CCc5ccccc5C4)c3)ncn2)CC1	1060
CCN1c2ccc(F)cc2C(=O)NC12CCN(C(=O)c1ccc(F)cc1)CC2	714
COc1ccc(CNC(=O)C2(c3ccc(NC(C)=O)cc3)CCCCC2)c(OC)c1	841
O=C(Nc1ccc(-n2cnnn2)cc1)c1ccc(OCc2nc(C3CC3)cs2)cc1	823
Cc1nc(-c2cccnc2)nc2c1CCC(=O)N2Cc1cccs1	740
Clc1ccc(Nc2nc(NCCCn3ccnc3)nc3nc[nH]c23)cc1	536
O=C(Cc1cccs1)NCC(c1ccsc1)N1CCCC1 (stereo not drawn)	558
O=C(c1ccoc1)N1CCc2cc(-c3csc(C4CC4)n3)ccc21	1060
CC(NC(=O)CSc1nnc2c3ccccc3nc(-c3ccco3)n12)c1nc2ccccc2[nH]1 (stereo not drawn)	638

SMILES	RP-LC retention time [s]
CCn1nc(C(=O)Nc2nc3c(OC)ccc(C)c3s2)cc1C	872
CC(C)c1ccc(OCC(O)Cn2c(C3CC3)nc3ccccc32)cc1 (stereo not drawn)	788
NC(=O)Cc1cccc(C(=O)c2ccccc2)c1N	734
COc1ccc(N2CC(c3nc(-c4ccc(Cl)cc4)no3)CC2=O)c(OC)c1 (stereo not drawn)	1000
COC(=O)c1ccccc1Nc1c(-c2cccc(O)c2)nc2cnccn12	792
O=C(c1ccoc1)N1CCCC(OCc2nc(C3CC3)no2)C1 (stereo not drawn)	742
O=S(=O)(c1ccccc1C(F)(F)F)N1CCC2(CCN(c3cccnc3)C2)C1 (stereo not drawn)	694
CCc1ccc(CNC(=O)C2CCN(C(=O)c3ncn4c3COC(c3ccc(F)cc3)C4)CC2)cc1 (stereo not drawn)	846
O=C(Cc1cccs1)N1CCN(C(=O)c2cc3ccccc3[nH]2)CC1	767
CCCOc1ccccc1C(=O)Nc1nonc1-c1ccccc1	991
CCn1cc(S(=O)(=O)NCc2ccccc2F)c2cccnc21	799
Clc1ccc(-c2nc(N3CCN(C4CCCCC4)CC3)c3ccccc3n2)cc1	562
C[C@H]1CCCC(=O)CCC/C=C/c2c(O)cc(O)cc2C(=O)O1	888
COCCCn1c(=O)c2ccccc2n(Cc2nc(-c3ccccc3C)no2)c1=O	1020
O=C(COc1ccc(-c2cnc3ccccc3n2)cc1)Nc1ccccn1	852
CNC(=O)c1cccc(NC(=O)N2CCC(Oc3ccccc3Cl)CC2)c1	899
O=C(Cc1cn2cc(Cl)ccc2n1)Nc1ccccc1	614
Fc1ccc(-c2noc(CCc3nnc4ccc(N5CCN(Cc6ccccc6)CC5)nn34)n2)cc1	656
O=C(Cn1nc(C(=O)N2CCOCC2)cc1C1CC1)NCCCN1CCCC1=O	566
CCNC(=O)CN1CCN(Cc2ccccc2F)C1=O	658

SMILES	RP-LC retention time [s]
Cc1nc(-c2csc(S(=O)(=O)N3CCCC(C(=O)Nc4c(C)cccc4C)C3)c2)no1 (stereo not drawn)	1060
CCOCCCNCc1ccc(-c2ccc(OC)c(Cl)c2)o1	705
O=c1c(S(=O)(=O)N2CCCC2)cccn1Cc1ccccc1Cl	860
Cc1ccccc1-c1nnc(COc2ccc(NC(=O)c3cncc(Br)c3)cc2)o1	968
NS(=O)(=O)c1ccc(CCNCc2ccc(-c3ccccc3F)o2)cc1	643
CCN1c2ccccc2C(=O)NC12CCN(C(=O)c1cccc(F)c1)CC2	742
CCc1nc(N)n(CC(=O)Nc2ccccc2F)c(=O)c1C	599
O=C([C@@H]1C[C@H](F)CN1C(=O)c1ccccc1F)N1CCCCC1	677
CCCS(=O)(=O)c1nc2ccc(NS(=O)(=O)c3cccc4nsnc34)cc2s1	878
NC(=O)Nc1cc(-c2cccc(F)c2)sc1C(=O)N[C@H]1CCCNC1	650
COc1ccc(NC(=O)Cc2csc3nc(-c4ccccc4)cn23)cc1	751
COc1cccc(-c2noc(CCn3nc(-c4cccc(Cl)c4)ccc3=O)n2)c1OC	947
COC(=O)c1cccc(Nc2c(-c3ccc(N(C)C)cc3)nc3cnccn23)c1	776
COc1ccc(NC(=O)Cn2nc3cc(C)nc(Nc4ccc(C)c(C)c4)n3c2=O)cc1	1090
CC(C)c1cc(NCc2ccccn2)n2ncc(-c3ccccc3)c2n1	1010
CCn1cc(CCNS(=O)(=O)Cc2ccc(F)cc2Cl)c2cccnc21	812
O=C(NC1CCN(c2cc(-c3cccs3)[nH]n2)C1)c1ccc(Br)cc1 (stereo not drawn)	782
O=C(NCc1cccs1)c1cccc(N2CCNC(c3ccccc3)C2)n1 (stereo not drawn)	579
COc1cccc(C2CC(c3ccc(F)cc3)=NC3(CCN(C)CC3)N2)c1O (stereo not drawn)	590

The remaining lines, values ahead:

RP-LC retention time [s]	SMILES
805	CCc1cccc(NC(=O)CN2C(=O)NC3(CCCCC3)C2=O)c1
893	Cc1ccc(C)c(N2CCN(C(=O)Cn3cnc4nc5c(cc4c3=O)CCCC5)CC2)c1
539	Cc1cccc(Nc2nc(CC(=O)N3CCC(C(N)=O)CC3)cs2)n1
877	COc1ccc(S(=O)(=O)N2CCCC(C(=O)NCCCOC(C)C)C2)cc1C (stereo not drawn)
903	CCN(C(=O)C1CCCN(c2ncnc3c2nc2n3CCCCC2)C1)c1cccc(C)c1 (stereo not drawn)
791	O=C(C1=CN(c2ccc(Cl)cc2)c2ccccc2S1(=O)=O)N1CCOCC1
831	CCC(C(=O)NC(C)C)n1nc(C)c2nn(-c3ccccc3)c(C)c2c1=O (stereo not drawn)
783	Cc1cccc(NC(=O)Cn2nc(N3CCOCC3)c3ccccc3c2=O)c1
736	Cn1c(N2CCCC(C(=O)NCCCc3ccccc3)C2)cc(=O)n(C)c1=O (stereo not drawn)
1060	Cc1nn(-c2ccccc2)c(C)c1S(=O)(=O)N1CCC(C(=O)N2c3ccccc3CC2C)CC1 (stereo not drawn)
617	CC(C)CN1C(=O)c2ccccc2C(C(=O)NCCN2CCN(C)CC2)C1c1cccs1 (stereo not drawn)
719	COc1ccc(NC(=O)Nc2cccc(-c3ccc(N4CCCCC4)nn3)c2)c(OC)c1
800	COc1ccc(S(=O)(=O)NC2CCN(c3ccc(=O)n(CC4CC4)n3)C2)cc1Cl (stereo not drawn)
655	CCCNC(=O)C1CCCN(c2ccc(SCC(=O)Nc3c(C)cccc3Cl)nn2)C1 (stereo not drawn)
924	CCC(C(=O)NCCc1ccc(Cl)cc1)n1cnc2oc(C)c(C)c2c1=O (stereo not drawn)
945	Cc1cccc(N2CCN(c3ncc(C(=O)O)c(C)n3)CC2)c1
771	COc1cccc(NC(=O)N2CCc3cn(C)c4cccc(c34)C2)c1
778	COC(=O)c1ccc(NC(=O)Cn2nc3nc(N4CCCCC4C)ccn3c2=O)cc1 (stereo not drawn)
816	CCC(C)NC(=O)N1CCCN(C2=NS(=O)(=O)C(c3ccc(C)cc3)=C2C)CC1 (stereo not drawn)
1060	CC(=O)c1cccc(NC(=O)Cn2c(-c3ccc(Cl)cc3)nc(C)cc2=O)c1
864	CNC(=O)N1CCCC(c2cccc(C(=O)N3CCN(c4ccc(Cl)cc4)CC3)c2)C1 (stereo not drawn)
704	CCOCc1nc(C2CCCN(C(=O)NC(C)C)C2)no1 (stereo not drawn)
940	CC(C)n1nnc2cc(S(=O)(=O)N3CCCC(C(=O)N(C)Cc4ccccc4)C3)ccc21 (stereo not drawn)
829	O=C(Nc1ccccc1C(F)(F)F)N1CCC(N2CCN(Cc3cccc(F)c3)C(=O)C2=O)CC1
653	O=C(Cn1ccnc1-c1ccnc(N2CCSCC2)c1)NCc1ccc(F)cc1
657	Cc1ccc(-c2cc(C(=O)N3CCN(c4ccc(N5CCOCC5)nn4)CC3)[nH]n2)cc1C
808	O=C(NCc1ccco1)C1CCCN(c2ccc(=O)n(-c3cccc(Cl)c3)n2)C1 (stereo not drawn)
1120	Cn1c(=O)n(CC(=O)N2CCCCCC2)c(=O)c2cnc(-c3ccc(Cl)cc3)nc21
746	Cc1ccc(NS(=O)(=O)c2cc(-c3[nH]ncc3C(=O)N3CCCC3)oc2C)c(C)c1
